The record followed here is patent US10813972B2, “Treatment of DNA damage and mitochondrial dysfunction using palm fruit juice” (BRANDEIS UNIVERSITY, priority 2013, dated 2020).

This data set deals with mitochondrial DNA (HV2, CO2, ND1) of HepG2 cells. Description: mtDNA mutational load in HepG2 cells grown 30 days with INH or INH+PFJ (multiplex LATE-PCR/Lights On-Lights Off assay). It is filed as cell-based, human. Conditions: 88 μM INH, HepG2, 30 days. The protocol:
A liver carcinoma cell line (HepG2 cells, ATCC, Manassas, Va.) was grown for 30 days in the presence of either 88 μM INH (Sigma, St. Louis, Mo.) or 88 μM INH+50 μg/ml gallic acid equivalents (GAE) PFJ. A culture without these additives served as a non-treated control. Cells were grown in Eagle's Minimum Essential Medium (ATCC Manassas, Va.). The media were supplemented with 25 mM HEPES, 10% fetal bovine serum (BioWest), 50 units/mL Penicillin G, 50 units/mL Streptomycin, and 0.25 μg Amphotericin B (HyClone Antibiotic/Antimycotic Solution 100×) in 6-well plates at 37° C. and 5% CO2. The media and additives were replenished every other day. The cells were passaged as per ATCC's instructions at an initial density of 1×10^5 cells/ml.
At the end of the culture period, each HepG2 culture was tripsinized, spun at 100×g for 15 min at 4° C. and resuspended in Dulbecco's phosphate buffer solution (Sigma, St. Louis, Mo.) at a concentration of 1×10^3 cells/ml. DNA from these cultures was extracted by placing 5 μl of cell suspension into 32.5 μl volume of a lysis buffer containing 100 μg/ml proteinase K, 10 mM Tris-Cl pH 8.3, and 5 μM SDS (sodium-dodecyl-sulfate) and heating to 50° C. for 2 hours followed by 95° C. for 15 minutes. The samples were then stored at −20° C. […]

With `NNC(=O)c1ccncc1` [INH, isoniazid], the “mtDNA mutational load (fluorescent signature changes indicative of mitochondrial DNA mutations)” value is “increases mtDNA mutational load”.
